# According to patent publication US20250213707A1, “COMPOUND FOR INCREASING EFFICACY OF ONCOLYTIC VIRUSES” (ABLEVIA BIOTECH GMBH, priority 2022, published 2025):
# Tested on: IgG from human donors (anti-AAV antibodies)
# Assay: Screen for anti-AAV antibodies in human sera, 2452 linear 15-amino-acid AAV peptides on microarrays (Table 1)
# Type: binding
# Design: key to group I: X: the deduplicated aggregate of the respective top 10 peptide hits for each donor was compiled and designated as group I; key to group II: X: the deduplicated aggregate of the respective top 25 peptide hits for each donor was compiled and designated as group II; key to group III: X: the deduplicated aggregate of the respective top 50 peptide hits for each donor was compiled and designated as group III
# Settings: for group I: membership in deduplicated aggregate of top 10 peptide hits for each donor
# Experimental: 2452 linear peptides derived from the sequences of 16 different AAVs and with a sequence length of 15 amino-acids each were synthesized.
# Samples obtained from human donors were screened for antibodies against these AAV-derived peptides immobilized on microarrays. To this end, IgG was prepared from blood obtained from the human donors by protein G purification. Each IgG sample was incubated with the peptide microarrays and Ig binding signals were detected by fluorescence. All antibody binding signals to the peptides on the arrays were background subtracted and ranked for each sample and a deduplicated aggregate of the respective top 250 peptide hits for each donor with the corresponding protein sequence of origin (as obtained from UniProt or other sources) was compiled (designated as group IV). Further, the deduplicated aggregate of the respective top 50 peptide hits for each donor was compiled and designated as group III. Further, the deduplicated aggregate of the respective top 25 peptide hits for each donor was compiled and designated as group II. Finally, the deduplicated aggregate of the respective top 10 peptide hits for each donor was compiled and designated as group I.
# Altogether, group I contains 110 distinct peptide hits (assigned to the corresponding AAV vectors in Table 1), group II contains 289 distinct peptide hits, group III contains 428 distinct peptide hits and group IV contains 1271 distinct peptide hits. Evidently, group I is a subset of group II which in turn is a subset of group III which in turn is a subset of group IV. Groups I-IV correspond to the top 4.4%, […], 17.5% and 51.8%, respectively, of all peptides screened.
# [1] = X = peptide belongs to the deduplicated aggregate of the top 25 peptide hits for each donor, linear 15-amino-acid AAV peptides, IgG binding by fluorescence
# [2] = X = peptide belongs to the deduplicated aggregate of the top 50 peptide hits for each donor, linear 15-amino-acid AAV peptides, IgG binding by fluorescence
# [3] = X = peptide in the deduplicated aggregate of the top 50 peptide hits for each donor (top 17.5% of all peptides screened), linear 15-amino-acid AAV peptides on microarrays, human donor IgG, fluorescence
# [4] = human donor IgG binding to linear 15-amino-acid AAV peptides on microarray, fluorescence
# [5] = membership in deduplicated aggregate of top 25 peptide hits for each donor, human donor IgG binding to linear 15-amino-acid AAV peptides on microarray, fluorescence
# [6] = membership in deduplicated aggregate of top 50 peptide hits for each donor, human donor IgG binding to linear 15-amino-acid AAV peptides on microarray, fluorescence
substance,measurement,setting,value
289 (YLEGNMLITSESETQ; REGION 1..15: note = peptide derived from viral capsid protein) [compound 289],group II,[1],X
same,group III,[2],X
311 (QGVLPGMVWQDRDVY; REGION 1..15: note = peptide derived from viral capsid protein) [compound 311],group III,[2],X
432 (GSSSGNWHCDSTWLG; REGION 1..15: note = peptide derived from viral capsid protein) [compound 432],group III,[3],X
APGKKRPVDQSPQE (REGION 1..14: note = peptide derived from viral capsid protein) [SEQ ID NO: 1918],group I,[4],X
same,group II,[5],X
same,group III,[6],X
285 (PSKMLRTGNNFEFTY; REGION 1..15: note = peptide derived from viral capsid protein) [compound 285],group II,[1],X
same,group III,[2],X
481 (LGLEAGPPKPKPNQQ; REGION 1..15: note = peptide derived from viral capsid protein) [compound 481],group III,[3],X
315 (PFPADVFMVPQYGYL; REGION 1..15: note = peptide derived from viral capsid protein) [compound 315],group III,[2],X
453 (FGYSTPWGYFDFNRF; REGION 1..15: note = peptide derived from viral capsid protein) [compound 453],group III,[3],X
317 (HKDDEEKFFPQSGVL; REGION 1..15: note = peptide derived from viral capsid protein) [compound 317],group III,[2],X
283 (EFLGLEAGPPKPKPN; REGION 1..15: note = peptide derived from viral capsid protein) [compound 283],group II,[1],X
same,group III,[2],X
430 (NTPVPADPPTTFNQS; REGION 1..15: note = peptide derived from viral capsid protein) [compound 430],group III,[3],X
DSESVPDPQPIGEP (REGION 1..14: note = peptide derived from viral capsid protein) [SEQ ID NO: 1942],group I,[4],X
same,group II,[5],X
same,group III,[6],X
312 (NEADAAALEHDKAYD; REGION 1..15: note = peptide derived from viral capsid protein) [compound 312],group III,[2],X
HYFGYSTPWGYFDF (REGION 1..14: note = peptide derived from viral capsid protein) [SEQ ID NO: 1917],group I,[4],X
same,group II,[5],X
same,group III,[6],X
319 (EQYGSVSTNLQRGNR; REGION 1..15: note = peptide derived from viral capsid protein) [compound 319],group III,[2],X
HSQSLDRLMNPLID (REGION 1..14: note = peptide derived from viral capsid protein) [SEQ ID NO: 1951],group I,[4],X
same,group II,[5],X
same,group III,[6],X
425 (ELQKENSKRWNPEIQ; REGION 1..15: note = peptide derived from viral capsid protein) [compound 425],group III,[3],X
454 (YFGYSTPWGYFDFNR; REGION 1..15: note = peptide derived from viral capsid protein) [compound 454],group III,[3],X
288 (VQDSTTTIANNLTST; REGION 1..15: note = peptide derived from viral capsid protein) [compound 288],group II,[1],X
same,group III,[2],X
284 (NVGGQMATNNQSSTT; REGION 1..15: note = peptide derived from viral capsid protein) [compound 284],group II,[1],X
same,group III,[2],X
287 (AQPASSLGADTMSAG; REGION 1..15: note = peptide derived from viral capsid protein) [compound 287],group II,[1],X
same,group III,[2],X
334 (RQWWKLKPGPPPPKP; REGION 1..15: note = peptide derived from viral capsid protein) [compound 334],group III,[2],X
331 (DSLVNPGPAMASHKD; REGION 1..15: note = peptide derived from viral capsid protein) [compound 331],group III,[2],X
321 (IEKVMITDEEEIRTT; REGION 1..15: note = peptide derived from viral capsid protein) [compound 321],group III,[2],X
318 (DKGEPVNEADAAALE; REGION 1..15: note = peptide derived from viral capsid protein) [compound 318],group III,[2],X
282 (FITQYSTGQVTVEME; REGION 1..15: note = peptide derived from viral capsid protein) [compound 282],group II,[1],X
same,group III,[2],X
410 (ENVPFHSSYAHSQSL; REGION 1..15: note = peptide derived from viral capsid protein) [compound 410],group III,[3],X
328 (STVQVFTDSEYQLPY; REGION 1..15: note = peptide derived from viral capsid protein) [compound 328],group III,[2],X
407 (NTPVPADPPTAFNKD; REGION 1..15: note = peptide derived from viral capsid protein) [compound 407],group III,[3],X
363 (ASFITQYSTGQVSVE; REGION 1..15: note = peptide derived from viral capsid protein) [compound 363],group III,[2],X
301 (STTLSQNNNSNFAWT; REGION 1..15: note = peptide derived from viral capsid protein) [compound 301],group III,[2],×
TGDSESVPDPQPIG [SEQ ID NO: 1967],group I,[4],X
same,group II,[5],X
same,group III,[6],X
TAPGKKRPVDQSPQ (REGION 1..14: note = peptide derived from viral capsid protein) [SEQ ID NO: 1923],group I,[4],X
same,group II,[5],X
same,group III,[6],X
359 (SVPDPQPLGEPPATP; REGION 1..15: note = peptide derived from viral capsid protein) [compound 359],group III,[2],X
TESVPDPQPIGEPP (REGION 1..14: note = peptide derived from viral capsid protein) [SEQ ID NO: 1929],group I,[4],X
same,group II,[5],X
same,group III,[6],X
300 (TFNQAKLASFITQYS; REGION 1..15: note = peptide derived from viral capsid protein) [compound 300],group III,[2],X
281 (SKPSTSSDAEAGPSG; REGION 1..15: note = peptide derived from viral capsid protein) [compound 281],group II,[1],X
same,group III,[2],X
SESVPDPQPLGEPP (REGION 1..14: note = peptide derived from viral capsid protein) [SEQ ID NO: 1922],group I,[4],X
same,group II,[5],X
same,group III,[6],X
366 (MVWQDRDVYLQGPIW; REGION 1..15: note = peptide derived from viral capsid protein) [compound 366],group III,[2],X
323 (RPVEHSPVEPDSSSG; REGION 1..15: note = peptide derived from viral capsid protein) [compound 323],group III,[2],X
322 (KSVNVDFTVDTNGVY; REGION 1..15: note = peptide derived from viral capsid protein) [compound 322],group III,[2],X
356 (YSTGQVSVEIEWELQ; REGION 1..15: note = peptide derived from viral capsid protein) [compound 356],group III,[2],X
434 (TNPVATEEYGIVADN; REGION 1..15: note = peptide derived from viral capsid protein) [compound 434],group III,[3],X
LPYVLGSAHQGCLP (REGION 1..14: note = peptide derived from viral capsid protein) [SEQ ID NO: 1954],group I,[4],X
same,group II,[5],X
same,group III,[6],X
QQRVSTTLSQNNNS [SEQ ID NO: 1963],group I,[4],X
same,group II,[5],X
same,group III,[6],X
